In patent publication US12344610B2, “APOL1 inhibitors and methods of use” (Maze Therapeutics, Inc., priority 2022, dated 2025):

Columns and labels:
[1] = system: HEK293 clonal cell line overexpressing APOL1 G1; assay: APOL1 G1 HEK293 cell rescue assay (Example B3); format: cell-based; conditions: geometric mean of at least 2 runs, † = single run, ¥ = concentration at 50% rescue estimated (no sigmoidal curve)
Method in brief: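 HEK293 clonal line overexpressing APOL1 G1; EC50 is half-maximal reversal of APOL1-induced cell death. Values are the geometric mean of ≥2 runs on separate days, each run the average of duplicate wells. Where no sigmoidal curve could be fitted, the concentration giving 50% rescue was estimated.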

[2] = system: HEK293 cells overexpressing APOL1 G2; assay: APOL1 G2 HEK293 cell rescue assay (reversal of cell death caused by overexpression of APOL1); format: cell-based; conditions: geometric mean of at least 2 assay runs, † = single assay run
Method in brief: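 EC50 is the half-maximal effective concentration for reversing cell death driven by APOL1 G2 overexpression in HEK293 cells. Reported as geometric mean of at least 2 runs on separate days, each run averaging duplicate wells per plate; some values from a single run.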

[3] = Homo sapiens, HEK293, HEK293 clonal line overexpressing APOL1 G1
[4] = Homo sapiens, HEK293, HEK293 overexpressing APOL1 G2
[5] = HEK293 clonal line overexpressing APOL1 G1

SMILES | EC50 [1, 3] [nM] | EC50 [2, 4] [nM] | EC50 [1, 5] [nM] | EC50 ([2]; HEK293 overexpressing APOL1 G2) [nM]
CC(c1ccc(OCCN2CCC3(CC2)C(=O)Nc2ccc(Cl)cc23)cc1)S(C)(=O)=O (single isomer, unassigned) [Compound 39, 5-chloro-1′-(2-{4-[(1S) or (1R)-1-methanesulfonylethyl]phenoxy}ethyl)-1,2-dihydrospiro[indole-3,4′-piperidin]-2-one] | > 247 | 56.7 | – | –
O=C1CCc2cc(OCCN3CCC4(CC3)C(=O)Nc3ccc(Cl)cc34)cnc2N1[C@H]1C[C@@H](CO)C1 (single isomer, unassigned) [Compound 319, 5-chloro-1′-[2-({7-oxo-8-[(cis)-3-(hydroxymethyl)cyclobutyl]-5,6,7,8-tetrahydro-1,8-naphthyridin-3-yl}oxy)ethyl]-1,2-dihydrospiro[indole-3,4′-piperidin]-2-one] | 118 | 41.9 | – | –
CC[C@]1(O)C[C@@H](N2C(=O)CCc3cc(OCCN4CCC5(CC4)C(=O)Nc4ccc(Cl)cc45)cnc32)C1 (single isomer, unassigned) [Compound 321, 5-chloro-1′-[2-({7-oxo-8-[(cis)-3-ethyl-3-hydroxycyclobutyl]-5,6,7,8-tetrahydro-1,8-naphthyridin-3-yl}oxy)ethyl]-1,2-dihydrospiro[indole-3,4′-piperidin]-2-one] | 47.7 | 24.1 | – | –
CC1(O)CC(CN2C(=O)CCc3cc(OCCN4CCC5(CC4)C(=O)Nc4ccc(Cl)cc45)cnc32)C1 (single isomer, unassigned) [Compound 322, 5-chloro-1′-{2-[(7-oxo-8-{[(trans) or (cis)-3-hydroxy-3-methylcyclobutyl]methyl}-5,6,7,8-tetrahydro-1,8-naphthyridin-3-yl)oxy]ethyl}-1,2-dihydrospiro[indole-3,4′-piperidin]-2-one] | – | – | 38.6 | 18.5
C[C@]1(O)C[C@@H](n2ncc3cc(OCCN4CCC5(CC4)C(=O)Nc4ccc(Cl)cc45)cnc32)C1 (single isomer, unassigned) [Compound 357, 5-chloro-1′-[2-({1-[(cis)-3-hydroxy-3-methylcyclobutyl]-1H-pyrazolo[3,4-b]pyridin-5-yl}oxy)ethyl]-1,2-dihydrospiro[indole-3,4′-piperidin]-2-one] | 35.3 | 22.3 | – | –
CC1(O)CC(c2ncc(OCCN3CCC4(CC3)C(=O)Nc3ccc(Cl)cc34)cn2)C1 (single isomer, unassigned) [Compound 393, 5-chloro-1′-[2-({2-[(cis) or (trans)-3-hydroxy-3-methylcyclobutyl]pyrimidin-5-yl}oxy)ethyl]-1,2-dihydrospiro[indole-3,4′-piperidin]-2-one] | – | – | 159 | 80.5
C[C@]1(O)C[C@H](n2ncc3cc(OCCN4CCC5(CC4)C(=O)Nc4ccc(Cl)cc45)cnc32)C1 (single isomer, unassigned) [Compound 408, 5-chloro-1′-[2-({1-[(trans)-3-hydroxy-3-methylcyclobutyl]-1H-pyrazolo[3,4-b]pyridin-5-yl}oxy)ethyl]-1,2-dihydrospiro[indole-3,4′-piperidin]-2-one] | 56 | 23.1 | – | –
C[C@]1(O)C[C@@H](N2C(=O)CCc3cc(OCCN4CCC5(CC4)C(=O)Nc4ccc(OC(F)F)cc45)cnc32)C1 [Cmpd 325, 5-(difluoromethoxy)-1′-[2-({7-oxo-8-[(cis)-3-hydroxy-3-methylcyclobutyl]-5,6,7,8-tetrahydro-1,8-naphthyridin-3-yl}oxy)ethyl]-1,2-dihydrospiro[indole-3,4′-piperidin]-2-one] | 197 | 86.4 | – | –
CC(c1ncc(OCCN2CCC3(CC2)C(=O)Nc2ccc(Cl)cc23)cn1)S(C)(=O)=O (stereo not drawn) [Compound 1, 5-Chloro-1′-(2-{[2-(1-methanesulfonylethyl)pyrimidin-5-yl]oxy}ethyl)-1,2-dihydrospiro[indole-3,4′-piperidin]-2-one] | 302 | 120 | – | –
CS(=O)(=O)C1(c2ncc(OCCN3CCC4(CC3)C(=O)Nc3ccc(Cl)cc34)cn2)CC1 [Compound 4, 5-chloro-1′-(2-{[2-(1-methanesulfonylcyclopropyl)pyrimidin-5-yl]oxy}ethyl)-1,2-dihydrospiro[indole-3,4′-piperidin]-2-one] | 177 | 71.9 | – | –
Cc1nc(-c2ccc(OCCN3CCC4(CC3)C(=O)N(C)c3ccccc34)cc2)no1 [Compound 35, 1-methyl-1′-{2-[4-(5-methyl-1,2,4-oxadiazol-3-yl)phenoxy]ethyl}-1,2-dihydrospiro[indole-3,4′-piperidin]-2-one] | 488 | 574 | – | –
CC(=O)N1CCCc2cc(OCCN3CCC4(CC3)C(=O)N(C)c3ccccc34)ccc21 [Compound 36, 1′-{2-[(1-acetyl-1,2,3,4-tetrahydroquinolin-6-yl)oxy]ethyl}-1-methyl-1,2-dihydrospiro[indole-3,4′-piperidin]-2-one] | > 2150 | 919 | – | –
CS(=O)(=O)c1c(F)cc(OCCN2CCC3(CC2)C(=O)Nc2ccccc23)cc1F [Compound 42, 1′-[2-(3,5-difluoro-4-methanesulfonylphenoxy)ethyl]-1,2-dihydrospiro[indole-3,4′-piperidin]-2-one] | 1080 | 343 | – | –
O=C1Nc2ccc(Cl)cc2C12CCN(CCOc1ccc(S(=O)(=O)C3CC3)cc1)CC2 [Compound 43, 5-chloro-1′-{2-[4-(cyclopropanesulfonyl)phenoxy]ethyl}-1,2-dihydrospiro[indole-3,4′-piperidin]-2-one] | 131 | 33.1 | – | –
O=C1Nc2ccccc2C12CCN(CCOc1ccc(S(=O)(=O)C(F)F)cc1)CC2 [Compound 44, 1′-[2-(4-difluoromethanesulfonylphenoxy)ethyl]-1,2-dihydrospiro[indole-3,4′-piperidin]-2-one] | 478 | 116 | – | –
NC(=O)c1ccc(OCCN2CCC3(CC2)C(=O)Nc2ccc(Cl)cc23)cc1 [Compound 45, 4-(2-{5-chloro-2-oxo-1,2-dihydrospiro[indole-3,4′-piperidin]-1′-yl}ethoxy)benzamide] | 387 | 122 | – | –
NC(=O)c1ccc(OCCN2CCC3(CC2)C(=O)Nc2ccc(Cl)cc23)cc1F [Compound 46, 4-(2-{5-chloro-2-oxo-1,2-dihydrospiro[indole-3,4′-piperidin]-1′-yl}ethoxy)-2-fluorobenzamide] | 253 | 72.8 | – | –
Cc1cc(OCCN2CCC3(CC2)C(=O)Nc2ccc(Cl)cc23)ccc1C(N)=O [Compound 49, 4-(2-{5-chloro-2-oxo-1,2-dihydrospiro[indole-3,4′-piperidin]-1′-yl}ethoxy)-2-methylbenzamide] | 260 | 66.4 | – | –
CS(=O)(=O)c1ccc(OCCN2CCC3(CC2)C(=O)Nc2ccc(Cl)cc23)cc1C#N [Compound 50, 5-(2-{5-chloro-2-oxo-1,2-dihydrospiro[indole-3,4′-piperidin]-1′-yl}ethoxy)-2-methanesulfonylbenzonitrile] | 91.1 | 24.9 | – | –
CS(=O)(=O)N1CCCc2cc(OCCN3CCC4(CC3)C(=O)Nc3ccc(Cl)cc34)ccc21 [Compound 53, 5-chloro-1′-{2-[(1-methanesulfonyl-1,2,3,4-tetrahydroquinolin-6-yl)oxy]ethyl}-1,2-dihydrospiro[indole-3,4′-piperidin]-2-one] | 219 | 52.9 | – | –
CC(=O)N1CCCc2cc(OCCN3CCC4(CC3)C(=O)Nc3ccc(Cl)cc34)ccc21 [Compound 56, 1′-{2-[(1-acetyl-1,2,3,4-tetrahydroquinolin-6-yl)oxy]ethyl}-5-chloro-1,2-dihydrospiro[indole-3,4′-piperidin]-2-one] | 330 | 105 | – | –
CC(=O)N1Cc2ccc(OCCN3CCC4(CC3)C(=O)Nc3ccc(Cl)cc34)cc2C1 [Compound 57, 1′-{2-[(2-acetyl-2,3-dihydro-1H-isoindol-5-yl)oxy]ethyl}-5-chloro-1,2-dihydrospiro[indole-3,4′-piperidin]-2-one] | 390 | 190 | – | –
C[C@]1(O)C[C@@H](n2cnc3cc(OCCN4CCC5(CC4)C(=O)Nc4c(I)cc(Cl)cc45)cc(C(F)(F)F)c32)C1 [Compound 453, 5-chloro-7-iodo-1′-[2-({1-[(cis)-3-hydroxy-3-methylcyclobutyl]-7-(trifluoromethyl)-1H-1,3-benzodiazol-5-yl}oxy)ethyl]-1,2-dihydrospiro[indole-3,4′-piperidin]-2-one] | – | 19.1 | – | –
C[C@]1(O)C[C@@H](n2cnc3cc(OCCN4CCC5(CC4)C(=O)Nc4ccc(Cl)cc45)cc(F)c32)C1 [Compound 454, 5-chloro-1′-(2-((7-fluoro-1-((cis)-3-hydroxy-3-methylcyclobutyl)-1H-benzo[d]imidazol-5-yl)oxy)ethyl)spiro[indoline-3,4′-piperidin]-2-one] | – | 24.1 | – | –
C[C@]1(O)C[C@@H](n2ncc3cc(OCCN4CCC5(CC4)C(=O)Nc4ccc(Cl)cc45)cc(C(F)(F)F)c32)C1 [Compound 464, 5-chloro-1′-[2-({1-[(cis)-3-hydroxy-3-methylcyclobutyl]-7-(trifluoromethyl)-1H-indazol-5-yl}oxy)ethyl]-1,2-dihydrospiro[indole-3,4′-piperidin]-2-one] | – | 5.02 | – | –
C[C@]1(O)C[C@@H](n2ncc3cc(OCCN4CCC5(CC4)C(=O)Nc4ccc(C#N)cc45)cc(C(F)(F)F)c32)C1 [Compound 465, 2-oxo-1′-[2-({1-[(cis)-3-hydroxy-3-methylcyclobutyl]-7-(trifluoromethyl)-1H-indazol-5-yl}oxy)ethyl]-1,2-dihydrospiro[indole-3,4′-piperidine]-5-carbonitrile] | – | 8.86 | – | –
